Experimental data taken from PMC7782793, “Hydroxamic acid-modified peptide microarrays for profiling isozyme-selective interactions and inhibition of histone deacetylases” (Nature Communications, 2021).
Several values for one entry are separate records, joined by “and”; a condition that tells them apart may be missing. Equal values may be shown once. Marks after values point to notes of the source that are not given here. Non-standard residues stand in square brackets, D forms with d. Residues, ends and D or L forms follow the SMILES beside them. *: point of attachment. Asu = N[C@@H](CCCCCC(=O)O)C(=O)O; NHOH = ON*

Assays:
Type in all cases: biochemical
HDAC8 = target: T1, HDAC8 (Homo sapiens, UniProt Q9BY41); assay: HDAC inhibition assay (fluorogenic, Ac-Leu-Gly-Lys(Tfa)-AMC); settings: HDAC8, replicates
T1 construct: HDAC8 (full length, C-terminal His tag, BPS Bioscience, cat. #: 50008); purchased BPS Bioscience 50008
T1 sequence (Q9BY41 1-377): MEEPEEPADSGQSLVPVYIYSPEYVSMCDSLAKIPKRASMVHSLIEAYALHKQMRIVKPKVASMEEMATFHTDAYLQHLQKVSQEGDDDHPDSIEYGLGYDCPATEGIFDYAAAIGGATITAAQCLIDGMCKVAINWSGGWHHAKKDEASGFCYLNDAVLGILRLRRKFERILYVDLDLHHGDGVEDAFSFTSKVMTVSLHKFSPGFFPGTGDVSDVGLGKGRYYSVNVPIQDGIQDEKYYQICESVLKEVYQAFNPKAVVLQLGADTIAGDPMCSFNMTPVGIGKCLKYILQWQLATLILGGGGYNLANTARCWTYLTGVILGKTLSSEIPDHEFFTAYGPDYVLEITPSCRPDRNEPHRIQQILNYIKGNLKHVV

HDAC2 = target: T2, HDAC2 (Homo sapiens, UniProt Q92769); assay: HDAC inhibition assay (fluorogenic, Ac-Leu-Gly-Lys(Ac)-AMC); settings: HDAC2, replicates
T2 construct: HDAC2 (full length, C-terminal His tag, BPS Bioscience, cat. #: 50002); purchased BPS Bioscience 50002

HDAC6 = target: T3, HDAC6 (Homo sapiens, UniProt Q9UBN7); assay: as above; settings: HDAC6, replicates
T3 construct: HDAC6 (full length, BPS Bioscience, cat. #: 50056); purchased BPS Bioscience 50056
T3 sequence (Q9UBN7 1-1215): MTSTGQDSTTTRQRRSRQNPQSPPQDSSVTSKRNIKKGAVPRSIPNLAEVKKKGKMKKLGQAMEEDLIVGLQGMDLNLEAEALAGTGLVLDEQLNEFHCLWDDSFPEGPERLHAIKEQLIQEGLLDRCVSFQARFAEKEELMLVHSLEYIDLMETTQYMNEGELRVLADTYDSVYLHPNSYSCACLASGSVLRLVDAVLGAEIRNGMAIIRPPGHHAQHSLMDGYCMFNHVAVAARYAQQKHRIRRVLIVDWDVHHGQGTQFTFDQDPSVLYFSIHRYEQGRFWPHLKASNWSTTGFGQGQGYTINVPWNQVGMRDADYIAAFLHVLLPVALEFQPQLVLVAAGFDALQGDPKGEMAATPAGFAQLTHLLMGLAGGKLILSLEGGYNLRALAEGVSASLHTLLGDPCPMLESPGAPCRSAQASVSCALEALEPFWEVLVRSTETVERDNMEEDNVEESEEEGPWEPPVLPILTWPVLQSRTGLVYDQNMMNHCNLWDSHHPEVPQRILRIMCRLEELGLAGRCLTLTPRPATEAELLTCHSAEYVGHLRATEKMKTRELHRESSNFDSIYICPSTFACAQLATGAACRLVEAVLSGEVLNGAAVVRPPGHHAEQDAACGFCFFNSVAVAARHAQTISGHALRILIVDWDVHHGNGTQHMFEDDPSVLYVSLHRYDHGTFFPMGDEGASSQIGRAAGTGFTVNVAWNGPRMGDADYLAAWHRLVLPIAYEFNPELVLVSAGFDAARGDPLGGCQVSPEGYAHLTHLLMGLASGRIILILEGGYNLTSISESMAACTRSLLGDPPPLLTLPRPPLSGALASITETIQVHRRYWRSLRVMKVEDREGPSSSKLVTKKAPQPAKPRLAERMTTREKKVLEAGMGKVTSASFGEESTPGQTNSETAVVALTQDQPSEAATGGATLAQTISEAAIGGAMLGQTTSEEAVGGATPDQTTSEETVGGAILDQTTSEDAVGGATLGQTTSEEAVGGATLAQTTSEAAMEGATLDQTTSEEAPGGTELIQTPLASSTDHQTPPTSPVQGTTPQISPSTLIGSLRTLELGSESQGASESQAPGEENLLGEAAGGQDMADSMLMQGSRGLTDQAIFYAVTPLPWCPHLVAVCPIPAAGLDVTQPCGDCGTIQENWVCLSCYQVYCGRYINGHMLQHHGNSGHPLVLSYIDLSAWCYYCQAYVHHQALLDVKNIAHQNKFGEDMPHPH

HDAC3/NCoR2 = target: T4, HDAC3/NCoR2 (Homo sapiens, UniProt O15379); assay: as above; settings: HDAC3, replicates
T4 construct: HDAC3/NCoR2 (full length, C-terminal His tag, NCoR2 N-terminal GST tag); purchased BPS Bioscience 50003

HDAC1 = target: T5, HDAC1 (Homo sapiens, UniProt Q13547); assay: as above; settings: HDAC1, replicates
T5 construct: HDAC1 (full length, C-terminal His tag, C-terminal FLAG tag, BPS Bioscience, cat. #: 50051); FLAG (C); purchased BPS Bioscience 50051

[1] = log[inhibitor(M)] -10,5850266520292*

T2 sequence (Q92769 whole entry): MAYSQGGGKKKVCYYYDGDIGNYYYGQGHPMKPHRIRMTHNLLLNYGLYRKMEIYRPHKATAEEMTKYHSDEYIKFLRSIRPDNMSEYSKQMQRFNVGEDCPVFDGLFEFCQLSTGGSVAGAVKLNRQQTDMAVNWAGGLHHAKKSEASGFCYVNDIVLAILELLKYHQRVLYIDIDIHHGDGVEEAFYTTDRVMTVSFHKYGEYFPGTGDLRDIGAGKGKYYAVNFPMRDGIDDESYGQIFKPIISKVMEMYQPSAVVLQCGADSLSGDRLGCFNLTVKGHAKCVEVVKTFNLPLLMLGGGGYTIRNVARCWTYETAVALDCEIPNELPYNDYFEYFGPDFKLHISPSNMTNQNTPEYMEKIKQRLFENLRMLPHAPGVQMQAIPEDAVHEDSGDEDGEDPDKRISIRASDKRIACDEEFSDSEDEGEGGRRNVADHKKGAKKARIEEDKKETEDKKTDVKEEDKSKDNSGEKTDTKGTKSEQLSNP
T4 sequence (O15379 whole entry): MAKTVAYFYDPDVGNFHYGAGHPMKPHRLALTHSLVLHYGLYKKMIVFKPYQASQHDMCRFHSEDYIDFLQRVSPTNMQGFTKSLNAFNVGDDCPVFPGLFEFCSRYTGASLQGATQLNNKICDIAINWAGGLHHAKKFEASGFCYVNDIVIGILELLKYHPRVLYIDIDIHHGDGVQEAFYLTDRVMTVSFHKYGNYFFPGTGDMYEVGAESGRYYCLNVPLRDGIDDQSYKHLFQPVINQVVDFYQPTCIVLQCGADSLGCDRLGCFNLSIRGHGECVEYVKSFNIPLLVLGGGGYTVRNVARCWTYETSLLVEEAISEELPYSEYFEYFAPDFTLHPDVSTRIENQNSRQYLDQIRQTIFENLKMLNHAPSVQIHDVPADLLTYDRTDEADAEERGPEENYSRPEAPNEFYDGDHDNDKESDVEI
T4 sequence (Q9Y618 389-480 partner limits assumed): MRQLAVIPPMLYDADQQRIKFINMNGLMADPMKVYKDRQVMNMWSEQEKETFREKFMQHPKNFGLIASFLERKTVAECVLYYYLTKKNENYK
T5 sequence (Q13547 whole entry): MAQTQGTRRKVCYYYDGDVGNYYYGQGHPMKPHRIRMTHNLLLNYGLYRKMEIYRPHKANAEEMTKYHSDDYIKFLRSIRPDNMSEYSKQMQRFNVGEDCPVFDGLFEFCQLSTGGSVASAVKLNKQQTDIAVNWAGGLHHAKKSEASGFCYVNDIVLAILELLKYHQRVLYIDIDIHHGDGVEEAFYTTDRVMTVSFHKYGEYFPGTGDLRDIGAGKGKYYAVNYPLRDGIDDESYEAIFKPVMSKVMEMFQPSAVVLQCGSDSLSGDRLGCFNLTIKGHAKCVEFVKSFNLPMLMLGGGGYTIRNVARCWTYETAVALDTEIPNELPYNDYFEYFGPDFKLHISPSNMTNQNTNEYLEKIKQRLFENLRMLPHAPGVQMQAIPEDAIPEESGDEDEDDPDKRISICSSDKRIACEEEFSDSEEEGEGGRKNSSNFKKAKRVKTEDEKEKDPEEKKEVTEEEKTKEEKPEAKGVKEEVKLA

SMILES: CC(=O)N[C@@H](CCCCN)C(=O)NCC(=O)NCC(=O)N[C@@H](CCCCN)C(=O)NCC(=O)N[C@@H](CC(C)C)C(=O)NCC(=O)N[C@@H](CCCCCC(=O)NO)C(=O)NCC(=O)NCC(=O)N[C@@H](C)C(=O)N[C@@H](CCCCN)C(=O)N[C@@H](CCCNC(=N)N)C(=O)N[C@@H](Cc1c[nH]cn1)C(=O)N[C@@H](CCCNC(=N)N)C(=O)N[C@@H](Cc1c[nH]c2ccccc12)C(N)=O [1a] (Ac-KGGKGLG[Asu](NHOH)GGAKRHRW-NH2)
- residual enzymatic activity relative to control wells (HDAC8; log[inhibitor(M)] -4.30103): 0.7299 and 0.6853
- residual enzymatic activity relative to control wells (HDAC8; log[inhibitor(M)] -5): 2.535 and 2.3091
- residual enzymatic activity relative to control wells (HDAC8; log[inhibitor(M)] -5.69897): 8.883 and 8.651
- residual enzymatic activity relative to control wells (HDAC8; log[inhibitor(M)] -6.39794): 23.8025 and 24.0279
- residual enzymatic activity relative to control wells (HDAC8; log[inhibitor(M)] -7.09691): 53.2804 and 53.6221
- residual enzymatic activity relative to control wells (HDAC8; log[inhibitor(M)] -7.79588): 81.5639 and 82.7228
- residual enzymatic activity relative to control wells (HDAC8; log[inhibitor(M)] -8.49485): 92.8692 and 94.6574
- residual enzymatic activity relative to control wells (HDAC8; log[inhibitor(M)] -9.19382): 96.2557 and 98.5897
- residual enzymatic activity relative to control wells (HDAC8; log[inhibitor(M)] -9.89279): 97.4874 and 100.887
- residual enzymatic activity relative to control wells (HDAC8; [1]): 99,4860668* and 101,450216*
- residual enzymatic activity relative to control wells (HDAC2; log[inhibitor(M)] -5): 2.133 and 2.791
- residual enzymatic activity relative to control wells (HDAC2; log[inhibitor(M)] -5.69897): 7.69 and 10.6271
- residual enzymatic activity relative to control wells (HDAC2; log[inhibitor(M)] -7.79588): 81.9038 and 87.9722
- residual enzymatic activity relative to control wells (HDAC2; [1]): 96,4513363* and 102,627848*
- residual enzymatic activity relative to control wells (HDAC6; log[inhibitor(M)] -4.30103): 2.005 and 0.9042
- residual enzymatic activity relative to control wells (HDAC6; log[inhibitor(M)] -5): 3.396 and 1.499
- residual enzymatic activity relative to control wells (HDAC6; log[inhibitor(M)] -5.69897): 3.721 and 2.924
- residual enzymatic activity relative to control wells (HDAC6; log[inhibitor(M)] -6.39794): 6.701 and 7.197
- residual enzymatic activity relative to control wells (HDAC6; log[inhibitor(M)] -7.09691): 17.8452 and 18.76
- residual enzymatic activity relative to control wells (HDAC6; log[inhibitor(M)] -7.79588): 40.4588 and 44.1884
- residual enzymatic activity relative to control wells (HDAC6; log[inhibitor(M)] -8.49485): 67.624 and 70.0247
- residual enzymatic activity relative to control wells (HDAC6; log[inhibitor(M)] -9.19382): 82.7418 and 78.8697
- residual enzymatic activity relative to control wells (HDAC6; log[inhibitor(M)] -9.89279): 94.6266 and 87.8667
- residual enzymatic activity relative to control wells (HDAC6; log[inhibitor(M)] -10.585): 92.0979 and 95.7297
- residual enzymatic activity relative to control wells (HDAC3/NCoR2; log[inhibitor(M)] -4.30103): 0,27707809* and 0,48240325*
- residual enzymatic activity relative to control wells (HDAC3/NCoR2; log[inhibitor(M)] -5): 1.078 and 1.224
- residual enzymatic activity relative to control wells (HDAC3/NCoR2; log[inhibitor(M)] -5.69897): 2.835 and 3.644
- residual enzymatic activity relative to control wells (HDAC3/NCoR2; log[inhibitor(M)] -6.39794): 8.976 and 10.8935
- residual enzymatic activity relative to control wells (HDAC3/NCoR2; log[inhibitor(M)] -7.09691): 20.3107 and 23.0019
- residual enzymatic activity relative to control wells (HDAC3/NCoR2; log[inhibitor(M)] -7.79588): 35.6703 and 40.8157
- residual enzymatic activity relative to control wells (HDAC3/NCoR2; log[inhibitor(M)] -8.49485): 61.9563 and 69.3477
- residual enzymatic activity relative to control wells (HDAC3/NCoR2; log[inhibitor(M)] -9.19382): 85.7851 and 89.42
- residual enzymatic activity relative to control wells (HDAC3/NCoR2; log[inhibitor(M)] -9.89279): 97.8645 and 95.529
- residual enzymatic activity relative to control wells (HDAC3/NCoR2; log[inhibitor(M)] -10.585): 99.8741 and 99.2523
- residual enzymatic activity relative to control wells (HDAC1; log[inhibitor(M)] -4.30103): 0.3873 and 0.804
- residual enzymatic activity relative to control wells (HDAC1; log[inhibitor(M)] -5): 1.615 and 1.98
- residual enzymatic activity relative to control wells (HDAC1; log[inhibitor(M)] -5.69897): 4.97 and 7.056
- residual enzymatic activity relative to control wells (HDAC1; log[inhibitor(M)] -6.39794): 17.3755 and 23.9522
- residual enzymatic activity relative to control wells (HDAC1; log[inhibitor(M)] -7.09691): 42.4661 and 51.6182
- residual enzymatic activity relative to control wells (HDAC1; log[inhibitor(M)] -7.79588): 69.6554 and 78.2753
- residual enzymatic activity relative to control wells (HDAC1; log[inhibitor(M)] -8.49485): 90.2096 and 95.3244
- residual enzymatic activity relative to control wells (HDAC1; log[inhibitor(M)] -9.19382): 98.0899 and 101.545
- residual enzymatic activity relative to control wells (HDAC1; log[inhibitor(M)] -9.89279): 100.633 and 103.923
- residual enzymatic activity relative to control wells (HDAC1; [1]): 100,638665* and 104,135042*
